The values below are quoted from earlier work in US20170072072A1, “PH SENSITIVE FLUORESCENT COMPOUNDS AND METHODS FOR TUMOR DETECTION” (THE METHODIST HOSPITAL SYSTEM, priority 2014, published 2017).

The conditions of the data set: in DMSO.

As for `CC1(C)C(/C=C/C=C/C=C/C=C2\N(CCCCS(=O)(=O)O)c3ccc4ccccc4c3C2(C)C)=[N+](CCCCS(=O)(=O)[O-])c2ccc3ccccc3c21` [indocyanine green], the “quantum yield Φ of reference” value was 0.106.
